# Reference: US20180338937A1, “PHARMACEUTICAL PREPARATIONS” (Analyticon Discovery GmbH, priority 2015, published 2018)
# Legend:
# [1] = cited from earlier work
# [2] = Sensory tasting of a solution of a Nurofen ® suspension, sip and spit; assay type: in vivo, human; conditions: Nurofen ® suspension dissolved in water, ibuprofen 5 mg/ml, 25 μM dehydroabietic acid, 0.5% ethanol, vs comparison sample
# Procedure: Taste Modulation of Ibuprofen in Suspension (Nurofen®) The sensory evaluation of the samples was performed by a team of five experienced assessors.
# [3] = Sensory tasting of a solution of an ibuprofen suspension (Asda), sip and spit; assay type: in vivo, human; conditions: Ibuprofen suspension (orange taste, no sweeteners) in water, ibuprofen 5 mg/ml, 25 μM dehydroabietic acid, 0.5% ethanol, vs comparison sample
# Procedure: Taste Modulation of Ibuprofen in Suspension (Asda) The sensory evaluation of the samples was performed by a team of five experienced assessors. Details may be taken from the following Table 5: [table]
# [4] = Sensory tasting of a maltitol/ibuprofen solution, sip and spit; assay type: in vivo, human; conditions: Ibuprofen/maltitol syrup in water, 25 μM dehydroabietic acid, 0.5% ethanol, vs comparison sample
# [5] = Sensory tasting of a Calpol ® solution, sip and spit, five assessors; assay type: in vivo, human; conditions: Calpol ® suspension in water, paracetamol 12.5 mg/ml, 25 μM dehydroabietic acid, 0.5% ethanol
# Procedure: Taste Modulation of Paracetamol in a Commercially Available Formulation The sensory evaluation of the samples was performed by a team of five experienced assessors. Details may be taken from the following Table 1: [table]
# [6] = tested on: cyclooxygenase; conditions: U.S. Pat. No. 6,365,634 B1 (RUSSEL); cited from earlier work
# [7] = Sensory tasting of a maltitol/paracetamol solution, sip and spit; assay type: in vivo, human; conditions: Paracetamol/maltitol syrup in water, paracetamol 12.5 mg/ml, 25 μM dehydroabietic acid, 0.5% ethanol, vs comparison sample
# Procedure: Taste Modulation of Paracetamol in a Maltitol Formulation The sensory evaluation of the samples was performed by a team of five experienced assessors. Details may be taken from the following Table 2: [table]
# [8] = Sensory tasting of a Nurofen ® tablet solution, sip and spit; assay type: in vivo, human; conditions: Nurofen ® tablets dissolved in water, ibuprofen 5 mg/ml, 25 μM dehydroabietic acid, 0.5% ethanol, vs comparison sample
# Procedure: Taste Modulation of Ibuprofen in the Form of Tablets with Lysine (Nurofen®) The sensory evaluation of the samples was performed by a team of five experienced assessors.
# [9] = Sepulveda et al., Pharmacol. Res. 52(5), 429-437 (2005); cited from earlier work
structure (smiles),measurement,setting,value
C=C1C[C@@]23CC[C@H]4[C@@](C)(CCC[C@@]4(C)C(=O)O[C@@H]4O[C@H](CO)[C@@H](O)[C@H](O)[C@H]4O)[C@@H]2CC[C@]1(O[C@@H]1O[C@H](CO)[C@@H](O)[C@H](O)[C@H]1O[C@@H]1O[C@H](CO)[C@@H](O)[C@H](O)[C@H]1O)C3 [stevioside],daily uptake considered harmless,[1],up to 4 mg stevioside per kilogramme of bodyweight
CC(C)c1ccc2c(c1)CC[C@H]1[C@](C)(C(=O)O)CCC[C@]21C [dehydroabietic acid],Evaluation of the sample: typical natural taste of ibuprofen,[2],Masking of the typical natural taste
same,Evaluation of the sample: bitterness,[3],less bitter
same,Evaluation of the sample: orange aroma,[3],intensification of the orange aroma
same,Evaluation of the sample: overall taste,[3],more pleasant taste
same,Evaluation of the sample: sweetness,[3],more sweet
same,Evaluation of the sample: aftertaste,[4]; 5 mg/ml,less unpleasant aftertaste
same,Evaluation of the sample: burning sensation on the tongue/in the throat,[4]; 5 mg/ml,alleviation of the burning sensation
same,Evaluation of the sample: mouth dryness,[4]; 5 mg/ml,reduced mouth dryness
same,Evaluation of the sample: sweetness,[4]; 5 mg/ml,slightly sweet
same,Evaluation of the sample: bitterness,[4]; ibuprofen 5 mg/ml,less bitter
same,Evaluation of the sample: metallic taste,[5]; vs comparison sample,metallic taste reduced
same,Evaluation of the sample: bitterness,[5]; vs comparison sample without dehydroabietic acid,very significantly less bitter
same,inhibition of the cyclooxygenase,[6],inhibit the cyclooxygenase
same,Evaluation of the sample: aftertaste,[7],pleasant aftertaste
same,Evaluation of the sample: bitterness,[7],Bitterness reduced and delayed
same,Evaluation of the sample: taste at the beginning,[7],better taste at the beginning and more
same,Evaluation of the sample: unpleasant/metallic taste,[7],no long-lasting unpleasant/metallic taste
same,Evaluation of the sample: bitterness,[8],reduced bitterness
same,Evaluation of the sample: delayed burning sensation in the throat,[8],no change to the delayed burning
same,gastroprotective properties,[9],has gastroprotective properties
